The values that follow come from patent US20100183625A1, “Treatment of Mucositis with Kallikrein Inhibitors” (Dyax Corp., priority 2009, published 2010).

Positions of bridges follow the written chain, without caps; N, C: chain ends. No end group written: not given here.

Data set [1] addresses plasma kallikrein (NP_000883) (Homo sapiens, UniProt P03952). As to conditions: cited from earlier work.
The conditions of data set [2]: Lot 100808, phosphate buffered saline, pH 7.0, 5.6 mg/mL.
The next data set has as its target pKal (Homo sapiens, UniProt P03952). As to conditions: read-out: Ki,app; active site inhibitor of pKal; cited from earlier work.

plasma kallikrein (NP_000883), sequence (P03952 20-638): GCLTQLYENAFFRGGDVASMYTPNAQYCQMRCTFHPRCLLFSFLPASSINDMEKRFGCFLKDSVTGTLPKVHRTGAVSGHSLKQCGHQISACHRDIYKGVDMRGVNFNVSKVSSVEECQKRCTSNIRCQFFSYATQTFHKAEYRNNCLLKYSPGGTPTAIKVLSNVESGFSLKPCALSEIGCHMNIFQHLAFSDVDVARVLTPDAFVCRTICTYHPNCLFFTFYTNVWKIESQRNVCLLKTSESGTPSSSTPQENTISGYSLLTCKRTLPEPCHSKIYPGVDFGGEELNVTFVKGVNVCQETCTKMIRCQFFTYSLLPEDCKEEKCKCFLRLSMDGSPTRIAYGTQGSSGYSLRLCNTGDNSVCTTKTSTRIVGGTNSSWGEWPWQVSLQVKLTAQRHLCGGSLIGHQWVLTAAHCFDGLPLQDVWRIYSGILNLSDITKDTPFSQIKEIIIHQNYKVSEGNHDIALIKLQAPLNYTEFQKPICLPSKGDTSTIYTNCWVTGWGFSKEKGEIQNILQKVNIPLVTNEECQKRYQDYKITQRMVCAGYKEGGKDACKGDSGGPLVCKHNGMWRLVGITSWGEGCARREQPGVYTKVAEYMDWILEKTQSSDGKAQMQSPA
pKal, sequence (P03952 20-638): as above

Take “EAMHSFCAFKADDGPCRAAHPRWFFNIFTRQCEEFIYGGCEGNQNRFESLEECKKMCTRD (disulfide 7-57, 16-40, 32-53) [DX-88]”: the Ki in data set [1] is under 1 nM.

As for “EAMHSFCAFKADDGPCRAAHPRWFFNIFTRQCEEFSYGGCGGNQNRFESLEECKKMCTRD (disulfide 7-57, 16-40, 32-53) [EPI-KAL2]”, in data set [2], the Stability result was “Stable for 24 hours at 2-4 °C”. Further, the Ki at pKal is 0.1 nM.
